Results on one substance are retold here after US7025968B2, “CMV vaccines” (ChemoCentryx, Inc., priority 2000, dated 2006).

Assay [1] deals with wild type virions (Toledo). The assay is described as follows: 125I-fractalkine competition binding to purified HCMV virions (Example 1). The arrangement: species or system HCMV strain Toledo. Conditions: about 3 hours at 4° C., FIG. 5, read-out: IC50, unlabeled fractalkine competing off labeled fractalkine. The protocol: (§1) Human dermal fibroblasts were infected with HCMV strain Toledo or HCMV TolΔUS28 (Streblow et al., 1999, Cell 99:511-20) at an MOI of 0.01 and maintained at 37° C. and 5% CO2 in Dulbecco's minimal essential medium with 10% fetal calf serum and fed as necessary. At day 15 post infection supernatant was collected and clarified by two rounds of centrifugation at 400 g. Virions from the clarified supernatant were pelleted at 10,000 g, resuspended in TN (50 mM TRIS-Cl pH 7.5, 100 mM NaCl), and purified over two consecutive 20-70% sucrose gradients by standard techniques (Britt W J., 1984, Virology 135: 369-78). Virions were resuspended in 500 ul of assay buffer (20 mM HEPES, 140 mM NaCl, 1 mM CaCl2, 5 mM MgCl2, and with 0.2% bovine serum albumin) and 0.09 mL added to each well of assay plates containing serial dilutions of fractalkine (concentrations between 0-250 nM) in triplicate.
(§2) Then 0.09 mL of ^125I-fractalkine diluted in assay buffer (final concentration ˜2-10 fM, with ˜30,000 cpm per well) was added, the plates sealed and incubated for approximately 3 hours at 4° C. on a shaker platform. The assay plates were harvested using Packard filter plates, pre-soaked in PEI solution, on the vacuum harvest apparatus. Scintillation fluid (35 μL) was added to all wells, the plates were sealed and counted in a Top Count scintillation counter. […]

Assay [2] deals with rhCMV virions purified from RHDF cells. Description: 125I-fractalkine binding to virions (Example 4), rhCMV. The arrangement: species or system rhesus CMV strain 68.1. The settings on record: 3 hours at 4° C., FIG. 7. The method, then:
(§3) Human dermal fibroblast (HDF) were infected at an MOI of 3 with human CMV strain Toledo or a Toledo strain in which the US28 gene had been replaced with a green fluorescent protein/gpt resistance cassette (Toledo deltaUS28) (see, e.g., Vieira, J. et al. (1998) J. Virol. 72:S158-65). Alternatively, rhesus dermal fibroblasts (RhDF) were infected at an MOI of 3 with rhesus CMV strain 68.1 (see ATCC # VR-677). At 96 hours post infection supernatants were collected.
(§4) Supernatants were cleared by two spins at 1,500 rpm for 5 minutes in a bench top centrifuge. Virions were pelleted from the supernatant for 30 minutes at 10,000 rpm in a Beckman JA-21 or J-14 centrifuge or other similar centrifuge and resuspended in 0.5 ml TN buffer (0.05 M Tris/HCl, pH 7.4, 0.1M NaCl) then layered onto a 5 ml sucrose density gradient (20% to 70% w/v sucrose in TN) in a SW 50 centrifuge tube. Gradients were spun 90 minutes at 24,000 rpm in a Beckman SW50 centrifuge at 10° C. […]
(§5) Following incubation, the assay wells were harvested under vacuum using filter plates, pre-soaked with PEI solution. Scintillation fluid was added, the plates sealed and the radioactivity in the various wells counted.

The test system of assay [3] is HCMV virions lacking US28 (Toledo deltaUS28). The assay is described as follows: 125I-fractalkine binding to virions (Example 4), US28-deleted HCMV. The arrangement: species or system human CMV strain Toledo deltaUS28. The settings on record: 3 hours at 4° C., FIG. 7. The method, then:
as §3, §4, §5

The target of another assay is T1, US28 (Human cytomegalovirus, UniProt P69332).
T1 sequence (P69332 1-354): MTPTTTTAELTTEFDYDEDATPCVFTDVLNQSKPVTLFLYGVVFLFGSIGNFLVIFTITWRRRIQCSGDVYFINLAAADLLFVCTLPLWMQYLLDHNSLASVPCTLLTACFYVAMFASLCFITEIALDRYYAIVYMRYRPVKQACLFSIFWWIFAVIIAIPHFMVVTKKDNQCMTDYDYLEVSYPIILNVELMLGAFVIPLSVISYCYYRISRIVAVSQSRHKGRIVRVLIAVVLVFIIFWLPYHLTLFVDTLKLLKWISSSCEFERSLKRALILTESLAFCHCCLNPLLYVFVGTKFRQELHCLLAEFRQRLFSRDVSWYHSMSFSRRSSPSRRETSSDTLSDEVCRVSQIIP
Conditions: Kledal et al., 1998; read-out: KI of binding to US28; cited from earlier work.

Assay [4] concerns virions with deletion of US28 from the genome (TolΔUS28). Description: 125I-fractalkine binding to purified US28-deleted HCMV virions (Example 1). The settings on record: FIG. 5. The method, then:
as §1, §2

Assay [5] has as its system Rhesus dermal fibroblasts infected with Rhesus CMV. The assay is described as follows: radioligand binding assay, 125I-fractalkine on rhCMV-infected cells (Example 3). Conditions: unlabeled fractalkine vs 125I-fractalkine ~50 pM, 2-4 hours at 4° C., FIG. 6; read-out: IC50, reduction of binding of labeled fractalkine to the receptor by 50%. The method, then: Radioligand binding assays were carried our in the following manner. The target cells typically used in these assays were Rhesus dermal fibroblasts which had been infected with Rhesus; CMV for 3-7 days. Lots of cells verified for fractalkine binding were frozen until ready for use. For the assay, cells were thawed, washed, and resuspended in assay buffer (20 mM HEPES pH 7.1, 140 mM NaCl, 1 mM CaCl2, 5 mM MgCl2, and 0.2% bovine serum albumin) to a concentration of from 4×10^5 to 5×10^6 cells/ml.
Serial dilutions of unlabeled fractalkine were prepared as a 10× solution in 20% DMSO, and 0.02 ml was placed in assay plates. Next 0.09 ml of cells was added to the assay plates containing the unlabeled fractalkine. Lastly, 0.09 ml of ^125I-fractalkine diluted in assay buffer (final concentration ˜50 pM, with 20,000-50,000 cpm per well) was added, the plates sealed and incubated for 2-4 hours at 4° C. on a shaker platform. Assay plates were harvested using Packard GF/B filter plates (pre-soaked in 0.3% polyethyleneimmine (PEI) solution) on a Packard vacuum cell harvester. Scintillation fluid was added to all wells, the plates were sealed and then counted in a Top Count scintillation counter. Control wells containing either diluent only (for total counts) or excess unlabeled fractalkine (1 μg/ml, for non-specific binding) were used to calculate the percent of total inhibition. […]

The subject of assay [6] is Wild type HCMV virions expressing US28. Description: 125I-fractalkine binding to virions (Example 4), wild type HCMV. On the set-up: species or system human CMV strain Toledo. The settings on record: 3 hours at 4° C., FIG. 7. The protocol: as §3, §4, §5

For orientation: IC50 means the concentration that gives 50% inhibition. Usually Ki stands for the dissociation constant of the complex between target and ligand, obtained from inhibition or displacement. Consider “fractalkine: CX3C chemokine, tends to be cell bound; binds with very high affinity to the US28 receptor of HCMV”, for which the results for the IC50 in assay [1] and in assay [5] were about 0.04 nM and 0.044 nM, respectively. Also, the “binding of radiolabeled fractalkine to virions” value in assay [2] is “also bind to fractalkine”; in assay [3], “do not bind fractalkine”; in assay [6] it was “bind fractalkine tightly”. Moreover, in the assay with US28, the Ki was about 0.05 nM. Besides, the “binding of labeled fractalkine to virions” value in assay [4] is listed as “virtually no binding”.
